Where a name gives a salt, the structure may show the parent alone.
Legend:
Type in all cases: biochemical
[1] = molecular target: TNF-α converting enzyme (TACE) (Homo sapiens, UniProt P78536); test: Test procedure for measuring TACE inhibition (fluorescent peptidyl substrate)
Protocol: Using 96-well black microtiter plates, each well receives a solution composed of 10 μL TACE (final concentration 1 μg/mL), 70 μL Tris buffer, pH 7.4 containing 10% glycerol (final concentration 10 mM), and 10 μL of test compound solution in DMSO (final concentration 1 μM, DMSO concentration <1%) and incubated for 10 minutes at room temperature. The reaction is initiated by addition of a fluorescent peptidyl substrate (final concentration 100 μM to each well and then shaking on a shaker for 5 sec.
The reaction is read (excitation 340 nm, emission 420 nm) for 10 min. and the increase in fluorescence over time is plotted as a linear line. The slope of the line is calculated and represents the reaction rate.
The mean (x±sem) of the control rate is calculated and compared for statistical significance (p<0.05) with drug-treated rates using Dunnett's multiple comparison test.

[2] = molecular target: T1, MMP-1 (Homo sapiens, UniProt P03956); test: MMP-1 inhibition (thiopeptide or fluorescent peptide substrate); settings: printed in the MMP1 IC50 column; concentration not given
T1 sequence (P03956 100-469): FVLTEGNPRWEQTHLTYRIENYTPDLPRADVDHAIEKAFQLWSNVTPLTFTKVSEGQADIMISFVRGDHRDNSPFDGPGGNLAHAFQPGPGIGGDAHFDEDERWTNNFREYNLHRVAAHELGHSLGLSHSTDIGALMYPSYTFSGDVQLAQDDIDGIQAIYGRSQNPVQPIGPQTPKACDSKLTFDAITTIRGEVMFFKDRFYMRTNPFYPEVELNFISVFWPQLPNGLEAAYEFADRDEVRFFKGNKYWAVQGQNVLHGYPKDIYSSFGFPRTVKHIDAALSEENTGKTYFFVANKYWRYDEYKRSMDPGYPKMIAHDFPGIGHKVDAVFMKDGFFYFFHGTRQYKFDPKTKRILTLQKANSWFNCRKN
Protocol: (§1) These standard pharmacological test procedures are based on the cleavage of a thiopeptide substrates such as Ac-Pro-Leu-Gly(2-mercapto-4-methyl-pentanoyl)-Leu-Gly-OEt by the matrix metalloproteinases MMP-1, MMP-13 (collagenases) or MMP-9 (gelatinase), which results in the release of a substrate product that reacts colorimetrically with DTNB (5,5′-dithiobis(2-nitro-benzoic acid)). The enzyme activity is measured by the rate of the color increase. The thiopeptide substrate is made up fresh as a 20 mM stock in 100% DMSO and the DTNB is dissolved in 100% DMSO as a 100 mM stock and stored in the dark at room temperature. Both the substrate and DTNB are diluted together to 1 mM with substrate buffer (50 mM HEPES pH 7.5, 5 mM CaCl2) before use. The stock of enzyme is diluted with buffer (50 mM HEPES, pH 7.5, 5 mM CaCl2, 0.02% Brij) to the desired final concentration. The buffer, enzyme, vehicle or inhibitor, and DTNB/substrate are added in this order to a 96 well plate (total reaction volume of 200 μl) and the increase in color is monitored spectrophotometrically for 5 minutes at 405 nm on a plate reader and the increase in color over time is plotted as a linear line.
(§2) Alternatively, a fluorescent peptide substrate is used. In this test procedure, the peptide substrate contains a fluorescent group and a quenching group. Upon cleavage of the substrate by an MMP, the fluorescence that is generated is quantitated on the fluorescence plate reader. The assay is run in HCBC assay buffer (50 mM HEPES, pH 7.0, 5 mM Ca^+2, 0.02% Brij, 0.5% Cysteine), with human recombinant MMP-1, MMP-9, or MMP-13. The substrate is dissolved in methanol and stored frozen in 1 mM aliquots. For the assay, substrate and enzymes are diluted in HCBC buffer to the desired concentrations. Compounds are added to the 96 well plate containing enzyme and the reaction is started by the addition of substrate. The reaction is read (excitation 340 nm, emission 444 nm) for 10 min. and the increase in fluorescence over time is plotted as a linear line.
(§3) For either the thiopeptide or fluorescent peptide test procedures, the slope of the line is calculated and represents the reaction rate. The linearity of the reaction rate is confirmed (r^2>0.85). The mean (x±sem) of the control rate is calculated and compared for statistical significance (p<0.05) with drug-treated rates using Dunnett's multiple comparison test. Dose-response relationships can be generated using multiple doses of drug and IC50 values with 95% CI are estimated using linear regression.

[3] = molecular target: MMP-9 (Homo sapiens, UniProt P14780); test: MMP-9 inhibition (thiopeptide or fluorescent peptide substrate); settings: for MMP9 % inhibition: printed in the MMP9 IC50 column, concentration not given
MMP-9, sequence (P14780 94-707): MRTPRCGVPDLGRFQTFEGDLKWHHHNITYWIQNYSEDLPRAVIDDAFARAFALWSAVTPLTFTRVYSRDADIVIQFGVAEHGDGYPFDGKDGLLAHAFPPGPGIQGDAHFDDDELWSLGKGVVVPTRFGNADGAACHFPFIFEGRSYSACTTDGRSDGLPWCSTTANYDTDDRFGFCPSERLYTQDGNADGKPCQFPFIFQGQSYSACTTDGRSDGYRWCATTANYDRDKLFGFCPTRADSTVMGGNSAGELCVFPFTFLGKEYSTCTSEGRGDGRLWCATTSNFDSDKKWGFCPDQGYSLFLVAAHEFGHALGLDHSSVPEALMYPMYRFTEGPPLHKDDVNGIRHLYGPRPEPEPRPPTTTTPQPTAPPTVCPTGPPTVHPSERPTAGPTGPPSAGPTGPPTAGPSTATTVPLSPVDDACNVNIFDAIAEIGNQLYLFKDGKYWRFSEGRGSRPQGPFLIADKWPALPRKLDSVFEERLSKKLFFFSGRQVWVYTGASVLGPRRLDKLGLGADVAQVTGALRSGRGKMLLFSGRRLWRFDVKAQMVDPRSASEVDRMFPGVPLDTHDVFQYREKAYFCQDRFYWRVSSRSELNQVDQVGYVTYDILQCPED
Protocol: as §1, §2, §3

[4] = molecular target: MMP-13 (Homo sapiens, UniProt P45452); test: MMP-13 inhibition (thiopeptide or fluorescent peptide substrate); settings: for MMP13 % inhibition: MMP13 IC50, concentration not given; for IC50: read-out: MMP13 IC50
Protocol: The enzyme activity is measured by the rate of the color increase. The thiopeptide substrate is made up fresh as a 20 mM stock in 100% DMSO and the DTNB is dissolved in 100% DMSO as a 100 mM stock and stored in the dark at room temperature. Both the substrate and DTNB are diluted together to 1 mM with substrate buffer (50 mM HEPES pH 7.5, 5 mM CaCl2) before use. The stock of enzyme is diluted with buffer (50 mM HEPES, pH 7.5, 5 mM CaCl2, 0.02% Brij) to the desired final concentration.
as §2, with “substrate.” for “substrate. The reaction is read (excitation 340 nm, emission 444 nm) for 10 min. and the increase in fluorescence over time is plotted as a linear line.”
For either the thiopeptide or fluorescent peptide test procedures, the slope of the line is calculated and represents the reaction rate. […] The mean (x±sem) of the control rate is calculated and compared for statistical significance (p<0.05) with drug-treated rates using Dunnett's multiple comparison test.

TNF-α converting enzyme (TACE), sequence (P78536 215-824): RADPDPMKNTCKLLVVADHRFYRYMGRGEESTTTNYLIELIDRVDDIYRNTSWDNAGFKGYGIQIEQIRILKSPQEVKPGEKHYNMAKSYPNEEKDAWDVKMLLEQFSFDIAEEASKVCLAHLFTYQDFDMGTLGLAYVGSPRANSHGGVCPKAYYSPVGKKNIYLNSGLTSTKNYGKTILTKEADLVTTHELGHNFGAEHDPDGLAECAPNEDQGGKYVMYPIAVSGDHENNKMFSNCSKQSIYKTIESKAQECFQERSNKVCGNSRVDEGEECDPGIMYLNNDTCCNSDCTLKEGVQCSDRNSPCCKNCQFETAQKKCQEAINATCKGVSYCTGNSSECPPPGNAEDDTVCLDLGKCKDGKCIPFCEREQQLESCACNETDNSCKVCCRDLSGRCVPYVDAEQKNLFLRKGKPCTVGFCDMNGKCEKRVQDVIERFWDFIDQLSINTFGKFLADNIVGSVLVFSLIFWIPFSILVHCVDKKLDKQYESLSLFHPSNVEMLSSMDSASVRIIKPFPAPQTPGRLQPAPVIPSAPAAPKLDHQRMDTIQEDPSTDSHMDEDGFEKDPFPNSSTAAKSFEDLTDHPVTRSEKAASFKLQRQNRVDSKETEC

IC50 [1] [nM] | IC50 [4] [nM] | Structure (SMILES) | also measured
32.6 | 1730 | CC#CCOc1ccc(S(=O)(=O)CC2(C(=O)NO)CCN(C(=O)c3cccnc3)CC2)cc1 [Example 49, 4-({[4-(But-2-ynyloxy)phenyl]sulfonyl}methyl)-N-hydroxy-1-(pyridin-3-ylcarbonyl)piperidine-4-carboxamide triflouroacetic acid salt] | 
 | 352 | CC#CCOc1ccc(S(=O)(=O)CC2(C(=O)NO)CCN(C(=O)c3ccccc3)CC2)cc1 [Example 50, 1-Benzoyl-4-({[4-(but-2-ynyloxy)phenyl]sulfonyl}-methyl)-N-hydroxypiperidine-4-carboxamide] | 
41.8 | 3710 | CC#CCOc1ccc(S(=O)(=O)CC2(C(=O)NO)CCN(C(=O)NCC)CC2)cc1 [Example 52, 4-({[4-(But-2-ynyloxy)phenyl]sulfonyl}methyl)-N-1-ethyl-N-4-hydroxypiperidine-1,4-dicarboxamide] | 
20.8 | 1160 | CC#CCOc1ccc(S(=O)(=O)CC2(C(=O)NO)CCN(C(=O)Nc3ccccc3)CC2)cc1 [Example 53, 4-({[4-(But-2-ynyloxy)phenyl]sulfonyl}methyl)-N-4-hydroxy-N-1-phenyl-piperidine-1,4-dicarboxamide] | 
 | 3.2 | CC#CCOc1ccc(S(=O)(=O)CC2(C(=O)NO)CCN(C(=O)N(C)c3ccccc3)CC2)cc1 [Example 56, 4-({[4-(But-2-ynyloxy)phenyl]sulfonyl}methyl)-N-4-hydroxy-N-1-methyl-N-1-phenylpiperidine-1,4-dicarboxamide] | 
53.3 | 11.2 | CC#CCOc1ccc(S(=O)(=O)CC2(C(=O)NO)CCN(S(=O)(=O)c3ccccc3)CC2)cc1 [Example 59, 4-({[4-(But-2-ynyloxy)phenyl]sulfonyl}methyl)-N-hydroxyl-(phenylsulfonyl)piperidine-4-carboxamide] | 
56.4 | 575 | CC#CCOc1ccc(S(=O)(=O)CC2(C(=O)NO)CCN(C(=O)CNCc3ccccc3)CC2)cc1 [Example 61, 1-[2-(Benzylamino)acetyl]-4-({[4-(but-2-ynyloxy)phenyl]sulfonyl}methyl)-N-hydroxypiperidine-4-carboxamide] | 

Further lines, the compound ahead of its results:

Structure (SMILES) | IC50 [1] [nM] | IC50 [4] [nM] | also measured
CCCCCC#CCOc1ccc(S(=O)(=O)C2(C(=O)NO)CCN(Cc3ccc(Br)cc3)CC2)cc1 [Example 6, 1-(4-Bromo-benzyl)-4-(4-oct-2-ynyloxy-benzenesulfonyl)-piperdine-4-carboxylic acid hydroxyamide] | 393 |  | MMP1 % inhibition [2]: 32.9%; MMP9 % inhibition [3]: 58.9%; MMP13 % inhibition [4]: 60%
CC#CCOc1ccc(SC2(C(=O)NO)CCN(C(=O)OC(C)(C)C)CC2)cc1 [Example 14, 4-(4-But-2-ynyloxy-phenylsulfanyl)-4-hydroxycarbamoyl-piperidine-1-carboxylic acid tert-butyl ester] |  |  | inhibition at 1 µM [1]: 67%; MMP1 % inhibition [2]: 26%; MMP9 % inhibition [3]: 21%; MMP13 % inhibition [4]: 32%
CC#CCOc1ccc(SC2(C(=O)NO)CCN(Cc3ccc(Br)cc3)CC2)cc1 [Example 16, 1-(4-Bromo-benzyl)-4-(4-but-2-ynyloxy-phenylsulfanyl)-piperidine-4-carboxylic acid hydroxyamide] |  | 1470 | inhibition at 1 µM [1]: 46%; IC50 ([3]; read-out: MMP9 IC50): 2060 nM
CC#CCOc1ccc(S(=O)(=O)CC2(C(=O)NO)CCN(CC)CC2)cc1 [Example 46, 4-({[4-(But-2-ynyloxy)phenyl]sulfonyl}methyl)-1-ethyl-N-hydroxypiperidine-4-carboxamide triflouroacetic acid salt] | 105 |  | MMP13 % inhibition [4]: 55.6%
CC#CCOc1ccc(S(=O)(=O)CC2(C(=O)NO)CCN(Cc3ccc(Cl)s3)CC2)cc1 [Example 47, 4-({[4-(But-2-ynyloxy)phenyl]sulfonyl}methyl)-1-[(5-chlorothien-2-yl)methyl]-N-hydroxypiperidine-4-carboxamide triflouroacetic acid salt] | 227 | 275 | 
CC#CCOc1ccc(S(=O)(=O)CC2(C(=O)NO)CCN(C(=O)N(CC)CC)CC2)cc1 [Example 54, 4-({[4-(But-2-ynyloxy)phenyl]sulfonyl}methyl)-N-1-,N-1-diethyl-N-4-hydroxypiperidine-1,4-dicarboxamide] | 32.2 | 104 | 
CC#CCOc1ccc(S(=O)(=O)CC2(C(=O)NO)CCN(C(=O)N3CCOCC3)CC2)cc1 [Example 55, 4-({[4-(But-2-ynyloxy)phenyl]sulfonyl}methyl)-N-hydroxy-1-(morpholin-4-ylcarbonyl)piperdine-4-carboxamide] | 70.7 | 600 | 
CC#CCOc1ccc(S(=O)(=O)CC2(C(=O)NO)CCN(C(=O)OCCCCCCCC)CC2)cc1 [Example 57, Octyl-4-({[4-(but-2-ynyloxy)phenyl]sulfonyl}methyl)-4-[(hydroxyamino)-carbonyl]piperidine-1-carboxylate] | 694 | 458 | 
CC#CCOc1ccc(S(=O)(=O)CC2(C(=O)NO)CCN(C(=O)Oc3ccc(OC)cc3)CC2)cc1 [Example 58, 4-Methoxyphenyl-4-({[4-(but-2-ynyloxy)phenyl]sulfonyl}methyl)-4-[(hydroxyamino)carbonyl]piperidine-1-carboxylate] | 21.1 | 179 | 
CC#CCOc1ccc(S(=O)(=O)CC2(C(=O)NO)CCN(S(=O)(=O)c3cn(C)cn3)CC2)cc1 [Example 60, 4-({[4-(But-2-ynyloxy)phenyl]sulfonyl}methyl)-N-hydroxy-1-1-[(1-methyl-1H-imidazol-4-yl)-sulfonyl]piperidine-4-carboxamide] | 38.4 | 8 | 
CC#CCOc1ccc(S(=O)(=O)CC2(C(=O)NO)CCN(C(=O)CN3CCN(C)CC3)CC2)cc1 [Example 63, 4-({[4-(But-2-ynyloxy)phenyl]sulfonyl}methyl)-N-hydroxy-1-[2-(4-methylpiperazin-1-yl)acetyl]piperidine-4-carboxamide] | 66.6 | 2230 | 
